According to paper doi:10.1101/2024.06.13.594677v1 (biorxiv, 2024):
Where two headings read alike, the source gives them in different places.

Key:
human 5-HT2A receptor [1] = target: T1, human 5-HT2A receptor (Homo sapiens, UniProt P28223); parameters: species or system SH-SY5Y expressing human 5-HT2A; settings: agonist
human 5-HT2A receptor [2] = target: T1, human 5-HT2A receptor; parameters: species or system SH-SY5Y expressing human 5-HT2A; settings: agonist; remark: listed apart in the source
human 5-HT2A receptor [3] = target: T1, human 5-HT2A receptor; parameters: species or system SH-SY5Y expressing human 5-HT2A; settings: agonist; remark: listed apart in the source
rat 5-HT2A receptor [4] = target: T2, rat 5-HT2A receptor (Rattus norvegicus, UniProt P14842); parameters: species or system C6 glioma (endogenous rat 5-HT2A); settings: relative to 10 uM 5-HT; agonist
rat 5-HT2A receptor [5] = target: T2, rat 5-HT2A receptor
rat 5-HT2A receptor [6] = target: T2, rat 5-HT2A receptor; assay: cytosolic Ca2+; assay type: cell-based; settings: Gq/Ca2+ agonism; room temperature; HBSS with Ca2+
human 5-HT2A receptor [7] = target: T1, human 5-HT2A receptor; assay type: cell-based; settings: Gq/IP1 agonism; LiCl; […] °C, […] h
human 5-HT2A receptor [8] = target: T1, human 5-HT2A receptor; assay type: cell-based; settings: Gq/Ca2+ agonism; room temperature; HBSS with Ca2+
human 5-HT2A receptor [9] = target: T1, human 5-HT2A receptor; assay type: cell-based; settings: beta-arrestin2 agonism; GRK2 and GRK3 co-expressed; DPBS with Ca2+; […] min

T2 sequence (P14842 whole entry): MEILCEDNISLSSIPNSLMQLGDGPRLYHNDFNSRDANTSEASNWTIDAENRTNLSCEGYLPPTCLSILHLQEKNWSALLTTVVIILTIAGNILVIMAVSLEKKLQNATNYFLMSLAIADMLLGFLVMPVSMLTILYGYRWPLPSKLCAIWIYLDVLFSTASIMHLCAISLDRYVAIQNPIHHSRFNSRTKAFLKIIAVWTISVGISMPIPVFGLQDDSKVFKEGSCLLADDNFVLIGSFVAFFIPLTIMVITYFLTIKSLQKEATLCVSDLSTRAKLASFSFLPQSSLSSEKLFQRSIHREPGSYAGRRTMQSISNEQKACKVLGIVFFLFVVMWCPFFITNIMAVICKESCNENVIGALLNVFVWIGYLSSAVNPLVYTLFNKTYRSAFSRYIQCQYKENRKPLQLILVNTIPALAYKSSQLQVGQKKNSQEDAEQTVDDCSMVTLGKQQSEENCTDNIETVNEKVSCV
T1 sequence (P28223 whole entry): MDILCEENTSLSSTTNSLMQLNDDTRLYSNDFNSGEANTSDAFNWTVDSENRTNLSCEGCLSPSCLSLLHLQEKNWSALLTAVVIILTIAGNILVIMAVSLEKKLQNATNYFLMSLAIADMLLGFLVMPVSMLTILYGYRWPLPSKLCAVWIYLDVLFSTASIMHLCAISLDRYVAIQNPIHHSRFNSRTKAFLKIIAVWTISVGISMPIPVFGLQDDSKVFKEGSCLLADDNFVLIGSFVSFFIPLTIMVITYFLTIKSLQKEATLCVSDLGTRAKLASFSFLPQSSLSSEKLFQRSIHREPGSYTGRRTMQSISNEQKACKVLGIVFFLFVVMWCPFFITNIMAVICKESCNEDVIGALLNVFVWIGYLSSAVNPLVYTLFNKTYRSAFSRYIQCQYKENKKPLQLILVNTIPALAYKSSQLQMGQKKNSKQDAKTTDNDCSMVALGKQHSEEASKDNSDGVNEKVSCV

COc1ccc2[nH]cc(CCN(C)C)c2c1 [5-MeO-DMT, 5-methoxy-N,N-dimethyltryptamine]
Ca2+ Emax (human 5-HT2A receptor [1]): 0.73 ± 0.033
IP1 Emax (human 5-HT2A receptor [2]): 0.93 ± 0.027
β-arrestin2 Emax (human 5-HT2A receptor [3]): 0.70 ± 0.020
Ca2+ Emax (C6) (rat 5-HT2A receptor [4]): 0.36 ± 0.021%
EC50 (rat 5-HT2A receptor [5]): 240 nM

COc1cc(CCNCc2ccccc2OC)c(OC)cc1Br [25B-NBOMe, 4-bromo-2,5-dimethoxy-N-(2-methoxybenzyl)phenethylamine]
pEC50 (rat 5-HT2A receptor [6]): 8.10 ± 0.23
pEC50 (human 5-HT2A receptor [7]): 8.95 ± 0.28
pEC50 (human 5-HT2A receptor [8]): 7.84 ± 0.15
pEC50 (human 5-HT2A receptor [9]): 8.20 ± 0.079

COc1cc(CCNCc2ccccc2OC)c(OC)cc1Br [25B-NBOMe]
Ca2+ Emax (human 5-HT2A receptor [1]): 0.57 ± 0.021
IP1 Emax (human 5-HT2A receptor [2]): 0.75 ± 0.040
β-arrestin2 Emax (human 5-HT2A receptor [3]): 0.88 ± 0.017
Ca2+ Emax (C6) (rat 5-HT2A receptor [4]): 0.46 ± 0.027%

COc1cc(CC(C)N)c(OC)cc1I (stereo not shown) [DOI, 2,5-dimethoxy-4-iodoamphetamine]
pEC50 (rat 5-HT2A receptor [6]): 7.14 ± 0.16
Ca2+ Emax (human 5-HT2A receptor [1]): 0.49 ± 0.019
IP1 Emax (human 5-HT2A receptor [2]): 1.12 ± 0.025
β-arrestin2 Emax (human 5-HT2A receptor [3]): 0.73 ± 0.027
Ca2+ Emax (C6) (rat 5-HT2A receptor [4]): 0.32 ± 0.017%

CCN(CC)C(=O)[C@@H]1C=C2c3cccc4[nH]cc(c34)C[C@H]2N(C)C1 [LSD]
Ca2+ Emax (human 5-HT2A receptor [1]): 0.36 ± 0.027
IP1 Emax (human 5-HT2A receptor [2]): 0.78 ± 0.039
Ca2+ Emax (C6) (rat 5-HT2A receptor [4]): 0.19 ± 0.0092%

COc1cc(CCN)cc(OC)c1OC [Mescaline, 3,4,5-trimethoxyphenethylamine]
Ca2+ Emax (human 5-HT2A receptor [1]): 0.47 ± 0.031
IP1 Emax (human 5-HT2A receptor [2]): 0.81 ± 0.050
β-arrestin2 Emax (human 5-HT2A receptor [3]): 0.64 ± 0.059
Ca2+ Emax (C6) (rat 5-HT2A receptor [4]): 0.40 ± 0.025%
EC50 (rat 5-HT2A receptor [5]): 295 nM

COc1ccc2c3c([nH]c2c1)CCN(C)CC3 [TBG]
Ca2+ Emax (human 5-HT2A receptor [1]): 0.13 ± 0.033
IP1 Emax (human 5-HT2A receptor [2]): 0.35 ± 0.064
β-arrestin2 Emax (human 5-HT2A receptor [3]): 0.19 ± 0.026

CN(C)CCc1c[nH]c2cccc(O)c12 [psilocin]
pEC50 (rat 5-HT2A receptor [6]): 7.15 ± 0.20
Ca2+ Emax (human 5-HT2A receptor [1]): 0.40 ± 0.019
IP1 Emax (human 5-HT2A receptor [2]): 0.80 ± 0.030
β-arrestin2 Emax (human 5-HT2A receptor [3]): 0.28 ± 0.019
Ca2+ Emax (C6) (rat 5-HT2A receptor [4]): 0.12 ± 0.0079%
